Patent publication US6468476B1, “Methods for using-co-regulated genesets to enhance detection and classification of gene expression patterns” (Rosetta Inpharmatics, Inc., priority 1998, dated 2002)

System: genes regulated by the Gcn4 transcription factor
Assay: Transcript response (DNA microarray) to a titration series of FK506, genes of the Gcn4 geneset
Assay type: cell-based, Saccharomyces cerevisiae
Method: Yeast (Saccharomyces cerevisiae, Strain YPH499, see, Sikorski and Hieter, 1989, A system of shuttle vectors and yeast host strains designated for efficient manipulation of DNA in Saccharomyces cerevisiae, Genetics 122:19-27) cells were grown in YAPD at 30° C. to an OD600 of 1.0 (±0.2), and total RNA prepared by breaking cells in phenol/chloroform and 0.1% SDS by standard procedures (Ausubel et al., 1995, Current Protocols in Molecular Biology, Greene Publishing and Wiley-Interscience, New York, Ch. 13). Poly(A)^+ RNA was selected by affinity chromatography on oligo-dT cellulose (New England Biolabs) essentially as described in Sambrook et al. (Molecular Cloning—A Laboratory Manual (2nd Ed.), Vol. 1, Cold Spring Harbor Laboratory, Cold Spring Harbor, N.Y., 1989). First strand cDNA synthesis was carried out with 2 μg poly(A)^+ RNA and SuperScript™ II reverse transcriptase (Gibco-BRL) according to the manufacturer's instructions with the following modifications. Deoxyribonucleotides were present at the following concentrations: dA, dG, and dC at 500 μM each, dT at 100 μM and either Cy3-dUTP or Cy5-dUTP (Amersham) at 100 μM. cDNA synthesis reactions were carried out at 42-44° C. for 90 minutes, after which RNA was degraded by the addition of 2 units of RNAse H, and the cDNA products were purified by two successive rounds of centrifugation dialysis using MICROCON-30 microconcentrators (Amicon) according to the manufacturer's recommendations.
Double-stranded DNA polynucleotides corresponding in sequence to each ORF in the S. cerevisiae genome encoding a polypeptide greater than 99 amino acids (based on the published yeast genomic sequence, e.g., Goffeau et al., 1996, Science 274:546-567) are made by polymerase chain reaction (PCR) amplification of yeast genomic DNA. Two PCR primers are chosen internal to each of the ORFs according to two criteria: (i) the amplified fragments are 300-800 bp and (ii) none of the fragments have a section of more than 10 consecutive nucleotides of sequence in common. Computer programs are used to aid in the design of the PCR primers. Amplification is carried out in 96 well microtitre plates. The resulting DNA fragments are printed onto glass microscope slides using the method of Shalon et al., 1996, Genome Research 6:639-645.
Fluorescently-labeled cDNAs (2-6 μg) are resuspended in 4×SSC plus 1 μg/μl tRNA as carrier and filtered using […] filters (Millipore, Bedford, Mass.). SDS is added to 0.3%, prior to heating to 100° C. for 2 minutes. Probes are cooled and immediately hybridized to the microarrays produced as described in Example 6.2, for 4 hours at 65° C. Non-hybridized probe is removed by washing in 1×SSC plus 0.1% SDS at ambient temperature for 1-2 minutes. Microarrays are scanned with a fluorescence laser-scanning device as previously described (Schena et al., 1995, Science 270:467-470; Schena et al., 1995, Proc. Natl. Acad. Sci. USA 93:[…]) and the results (including the positions of perturbations) are recorded.
Geneset number 3 in the clustering analysis result of FIG. 6 involves genes regulated by the Gcn4 transcription factor. This was verified via the literature and via multiple sequence alignment analysis of the regulatory regions 5′ to the individual genes (Stormo and Hartzell, 1989, Identifying protein binding sites from unaligned DNA fragments, Proc Natl Acad Sci 86:1183-1187; Hertz and Stormo, 1995, Identification of consensus patterns in unaligned DNA and protein sequences: a large-deviation statistical basis for penalizing gaps, Proc of 3rd Intl Conf on Bioinformatics and Genome Research, Lim and Cantor, eds., World Scientific Publishing Co., Ltd. Singapore, pp. 201-216). […] These 20 were used to define a geneset. Response profiles to a titration series of the drug FK506, which is known to hit this pathway at higher concentrations, were projected onto this geneset. […]

C=CC[C@@H]1/C=C(\C)C[C@H](C)C[C@H](OC)[C@H]2O[C@@](O)(C(=O)C(=O)N3CCCC[C@H]3C(=O)O[C@H](/C(C)=C/[C@@H]3CC[C@@H](O)[C@H](OC)C3)[C@H](C)[C@@H](O)CC1=O)[C@H](C)C[C@@H]2OC [FK506]
Geneset Average response (projected response of the 20-gene Gcn4 geneset) (FK506 7.5 μg/ml): 7.8209 standard deviations of Log10(Expression Ratio) | Response of gene ARG1 (FK506 7.5 μg/ml): 4.2215 standard deviations of Log10(Expression Ratio) | Response of gene ARG4 (FK506 7.5 μg/ml): 3.2973 standard deviations of Log10(Expression Ratio) | Response of gene ARG5,6 (FK506 7.5 μg/ml): 2.7433 standard deviations of Log10(Expression Ratio) | Response of gene ARO3 (FK506 7.5 μg/ml): 0.6059 standard deviations of Log10(Expression Ratio) | Response of gene ECM13 (FK506 7.5 μg/ml): 2.5343 standard deviations of Log10(Expression Ratio) | Response of gene HIS3 (FK506 7.5 μg/ml): 1.8024 standard deviations of Log10(Expression Ratio) | Response of gene HIS5 (FK506 7.5 μg/ml): 2.8414 standard deviations of Log10(Expression Ratio) | Response of gene MET16 (FK506 7.5 μg/ml): 0.1621 standard deviations of Log10(Expression Ratio) | Response of gene NCE3 (FK506 7.5 μg/ml): 1.569 standard deviations of Log10(Expression Ratio) | Response of gene PCL5 (FK506 7.5 μg/ml): 2.2898 standard deviations of Log10(Expression Ratio) | Response of gene SNO1 (FK506 7.5 μg/ml): 2.538 standard deviations of Log10(Expression Ratio) | Response of gene SNZ1 (FK506 7.5 μg/ml): 2.538 standard deviations of Log10(Expression Ratio) | Response of gene SSU1 (FK506 7.5 μg/ml): 0.5059 standard deviations of Log10(Expression Ratio) | Response of gene YBR047W (FK506 7.5 μg/ml): 1.1596 standard deviations of Log10(Expression Ratio) | Response of gene YER024W (FK506 7.5 μg/ml): 1.1526 standard deviations of Log10(Expression Ratio) | Response of gene YGL117W (FK506 7.5 μg/ml): 2.699 standard deviations of Log10(Expression Ratio) | Response of gene YGL184C (FK506 7.5 μg/ml): −0.4586 standard deviations of Log10(Expression Ratio) | Response of gene YHR029C (FK506 7.5 μg/ml): 2.3813 standard deviations of Log10(Expression Ratio) | Response of gene YMR195W (FK506 7.5 μg/ml): 0.8879 standard deviations of Log10(Expression Ratio) | Geneset Average response (projected response of the 20-gene Gcn4 geneset) (FK506 16 μg/ml): 19.9913 standard deviations of Log10(Expression Ratio) | Response of gene ARG1 (FK506 16 μg/ml): 4.711 standard deviations of Log10(Expression Ratio) | Response of gene ARG4 (FK506 16 μg/ml): 4.5135 standard deviations of Log10(Expression Ratio) | Response of gene ARG5,6 (FK506 16 μg/ml): 6.0457 standard deviations of Log10(Expression Ratio) | Response of gene ARO3 (FK506 16 μg/ml): 4.0553 standard deviations of Log10(Expression Ratio) | Response of gene CPA2 (FK506 16 μg/ml): 4.1093 standard deviations of Log10(Expression Ratio) | Response of gene ECM13 (FK506 16 μg/ml): 4.8689 standard deviations of Log10(Expression Ratio) | Response of gene HIS3 (FK506 16 μg/ml): 4.6461 standard deviations of Log10(Expression Ratio) | Response of gene HIS5 (FK506 16 μg/ml): 6.0052 standard deviations of Log10(Expression Ratio) | Response of gene MET16 (FK506 16 μg/ml): 3.3857 standard deviations of Log10(Expression Ratio) | Response of gene NCE3 (FK506 16 μg/ml): 5.5819 standard deviations of Log10(Expression Ratio) | Response of gene PCL5 (FK506 16 μg/ml): 5.4688 standard deviations of Log10(Expression Ratio) | Response of gene SNO1 (FK506 16 μg/ml): 5.8877 standard deviations of Log10(Expression Ratio) | Response of gene SNZ1 (FK506 16 μg/ml): 5.8877 standard deviations of Log10(Expression Ratio) | Response of gene SSU1 (FK506 16 μg/ml): 4.6461 standard deviations of Log10(Expression Ratio) | Response of gene YBR047W (FK506 16 μg/ml): 3.3107 standard deviations of Log10(Expression Ratio) | Response of gene YER024W (FK506 16 μg/ml): 4.6342 standard deviations of Log10(Expression Ratio) | Response of gene YGL117W (FK506 16 μg/ml): 4.9827 standard deviations of Log10(Expression Ratio) | Response of gene YGL184C (FK506 16 μg/ml): 2.7166 standard deviations of Log10(Expression Ratio) | Response of gene YHR029C (FK506 16 μg/ml): 5.0446 standard deviations of Log10(Expression Ratio) | Response of gene YMR195W (FK506 16 μg/ml): 4.0983 standard deviations of Log10(Expression Ratio) | Geneset Average response (projected response of the 20-gene Gcn4 geneset) (FK506 50 μg/ml): 21.3315 standard deviations of Log10(Expression Ratio) | Response of gene ARG1 (FK506 50 μg/ml): 5.7996 standard deviations of Log10(Expression Ratio) | Response of gene ARG4 (FK506 50 μg/ml): 5.8858 standard deviations of Log10(Expression Ratio) | Response of gene ARG5,6 (FK506 50 μg/ml): 5.2406 standard deviations of Log10(Expression Ratio) | Response of gene ARO3 (FK506 50 μg/ml): 5.7035 standard deviations of Log10(Expression Ratio) | Response of gene CPA2 (FK506 50 μg/ml): 4.0958 standard deviations of Log10(Expression Ratio) | Response of gene ECM13 (FK506 50 μg/ml): 3.1882 standard deviations of Log10(Expression Ratio) | Response of gene HIS3 (FK506 50 μg/ml): 5.2637 standard deviations of Log10(Expression Ratio) | Response of gene HIS5 (FK506 50 μg/ml): 4.9557 standard deviations of Log10(Expression Ratio) | Response of gene MET16 (FK506 50 μg/ml): 4.855 standard deviations of Log10(Expression Ratio) | Response of gene NCE3 (FK506 50 μg/ml): 3.3928 standard deviations of Log10(Expression Ratio) | Response of gene PCL5 (FK506 50 μg/ml): 5.2339 standard deviations of Log10(Expression Ratio) | Response of gene SNO1 (FK506 50 μg/ml): 5.5665 standard deviations of Log10(Expression Ratio) | Response of gene SNZ1 (FK506 50 μg/ml): 5.5665 standard deviations of Log10(Expression Ratio) | Response of gene SSU1 (FK506 50 μg/ml): 3.5782 standard deviations of Log10(Expression Ratio) | Response of gene YBR047W (FK506 50 μg/ml): 4.248 standard deviations of Log10(Expression Ratio) | Response of gene YER024W (FK506 50 μg/ml): 5.8934 standard deviations of Log10(Expression Ratio) | Response of gene YGL117W (FK506 50 μg/ml): 5.9066 standard deviations of Log10(Expression Ratio) | Response of gene YGL184C (FK506 50 μg/ml): 5.3106 standard deviations of Log10(Expression Ratio) | Response of gene YHR029C (FK506 50 μg/ml): 5.5781 standard deviations of Log10(Expression Ratio) | Response of gene YMR195W (FK506 50 μg/ml): 4.6141 standard deviations of Log10(Expression Ratio)
